Measurements as given in patent publication US20250353852A1, “COMPOUNDS AND COMPOSITIONS THAT INHIBIT PIKFYVE” (Kineta, Inc., priority 2021, published 2025).

Biological target: full-length human PIKFYVE (Homo sapiens (Human), UniProt Q9Y2I7, L932S/Q1183K/Q995L/S1033A/S696N/T998S)
Test: PIKfyve biochemical assay (ADP-Glo Kinase assay, Carna Biosciences)
Details: class symbols
Excerpt: PIKfyve Biochemical Assay. The biochemical […] inhibition assays were run by Carna Biosciences according to proprietary methodology based on the Promega […] Kinase assay. […] NP_055855.2] was expressed as N-terminal GST-fusion protein (265 kDa) using baculovirus expression system. GST-PIKFYVE was purified by using glutathione sepharose chromatography and used in an ADP-GloTM Kinase assay (Promega). Reactions were set up by adding the test compound solution, substrate solution, ATP solution and kinase solution, each at 4× final concentrations. Reactions were prepared with assay buffer (50 mM MOPS, 1 mM DTT, pH7.2), mixed, and incubated in black 384 well polystyrene plates for 1 hour at room temperature. ADP-Glo^TM reagent was then added for 40 minutes, followed by kinase detection reagent for an additional 40 minutes. The kinase activity was evaluated by detecting relative light units on a luminescence plate reader. […] IC50 values were calculated from concentration vs % inhibition curves by fitting to a four-parameter logistic curve. […] The biochemical […] inhibition assays were run by Carna Biosciences according to proprietary methodology based on the Promega ADP-GloTM Kinase assay. […] GST-PIKFYVE was purified by using glutathione sepharose chromatography and used in an ADP-GIoTM Kinase assay (Promega). Reactions were set up by adding the test compound solution, substrate solution, ATP solution and kinase solution, each at 4× final concentrations. Reactions were prepared with assay buffer (50 mM MOPS, 1 mM DTT, pH7.2), mixed, and incubated in black 384 well polystyrene plates for 1 hour at room temperature. ADP-GIoTM reagent was then added for 40 minutes, followed by kinase detection reagent for an additional 40 minutes. The kinase activity was evaluated by detecting relative light units on a luminescence plate reader. […] IC50 values were calculated from concentration vs % inhibition curves by fitting to a four-parameter logistic curve. […] The same compounds were also tested in both FAB1 and PIKFYVE TDP-43 yeast models.

Sequence of full-length human PIKFYVE (Q9Y2I7 whole entry S696N/L932S/Q995L/T998S/S1033A/Q1183K): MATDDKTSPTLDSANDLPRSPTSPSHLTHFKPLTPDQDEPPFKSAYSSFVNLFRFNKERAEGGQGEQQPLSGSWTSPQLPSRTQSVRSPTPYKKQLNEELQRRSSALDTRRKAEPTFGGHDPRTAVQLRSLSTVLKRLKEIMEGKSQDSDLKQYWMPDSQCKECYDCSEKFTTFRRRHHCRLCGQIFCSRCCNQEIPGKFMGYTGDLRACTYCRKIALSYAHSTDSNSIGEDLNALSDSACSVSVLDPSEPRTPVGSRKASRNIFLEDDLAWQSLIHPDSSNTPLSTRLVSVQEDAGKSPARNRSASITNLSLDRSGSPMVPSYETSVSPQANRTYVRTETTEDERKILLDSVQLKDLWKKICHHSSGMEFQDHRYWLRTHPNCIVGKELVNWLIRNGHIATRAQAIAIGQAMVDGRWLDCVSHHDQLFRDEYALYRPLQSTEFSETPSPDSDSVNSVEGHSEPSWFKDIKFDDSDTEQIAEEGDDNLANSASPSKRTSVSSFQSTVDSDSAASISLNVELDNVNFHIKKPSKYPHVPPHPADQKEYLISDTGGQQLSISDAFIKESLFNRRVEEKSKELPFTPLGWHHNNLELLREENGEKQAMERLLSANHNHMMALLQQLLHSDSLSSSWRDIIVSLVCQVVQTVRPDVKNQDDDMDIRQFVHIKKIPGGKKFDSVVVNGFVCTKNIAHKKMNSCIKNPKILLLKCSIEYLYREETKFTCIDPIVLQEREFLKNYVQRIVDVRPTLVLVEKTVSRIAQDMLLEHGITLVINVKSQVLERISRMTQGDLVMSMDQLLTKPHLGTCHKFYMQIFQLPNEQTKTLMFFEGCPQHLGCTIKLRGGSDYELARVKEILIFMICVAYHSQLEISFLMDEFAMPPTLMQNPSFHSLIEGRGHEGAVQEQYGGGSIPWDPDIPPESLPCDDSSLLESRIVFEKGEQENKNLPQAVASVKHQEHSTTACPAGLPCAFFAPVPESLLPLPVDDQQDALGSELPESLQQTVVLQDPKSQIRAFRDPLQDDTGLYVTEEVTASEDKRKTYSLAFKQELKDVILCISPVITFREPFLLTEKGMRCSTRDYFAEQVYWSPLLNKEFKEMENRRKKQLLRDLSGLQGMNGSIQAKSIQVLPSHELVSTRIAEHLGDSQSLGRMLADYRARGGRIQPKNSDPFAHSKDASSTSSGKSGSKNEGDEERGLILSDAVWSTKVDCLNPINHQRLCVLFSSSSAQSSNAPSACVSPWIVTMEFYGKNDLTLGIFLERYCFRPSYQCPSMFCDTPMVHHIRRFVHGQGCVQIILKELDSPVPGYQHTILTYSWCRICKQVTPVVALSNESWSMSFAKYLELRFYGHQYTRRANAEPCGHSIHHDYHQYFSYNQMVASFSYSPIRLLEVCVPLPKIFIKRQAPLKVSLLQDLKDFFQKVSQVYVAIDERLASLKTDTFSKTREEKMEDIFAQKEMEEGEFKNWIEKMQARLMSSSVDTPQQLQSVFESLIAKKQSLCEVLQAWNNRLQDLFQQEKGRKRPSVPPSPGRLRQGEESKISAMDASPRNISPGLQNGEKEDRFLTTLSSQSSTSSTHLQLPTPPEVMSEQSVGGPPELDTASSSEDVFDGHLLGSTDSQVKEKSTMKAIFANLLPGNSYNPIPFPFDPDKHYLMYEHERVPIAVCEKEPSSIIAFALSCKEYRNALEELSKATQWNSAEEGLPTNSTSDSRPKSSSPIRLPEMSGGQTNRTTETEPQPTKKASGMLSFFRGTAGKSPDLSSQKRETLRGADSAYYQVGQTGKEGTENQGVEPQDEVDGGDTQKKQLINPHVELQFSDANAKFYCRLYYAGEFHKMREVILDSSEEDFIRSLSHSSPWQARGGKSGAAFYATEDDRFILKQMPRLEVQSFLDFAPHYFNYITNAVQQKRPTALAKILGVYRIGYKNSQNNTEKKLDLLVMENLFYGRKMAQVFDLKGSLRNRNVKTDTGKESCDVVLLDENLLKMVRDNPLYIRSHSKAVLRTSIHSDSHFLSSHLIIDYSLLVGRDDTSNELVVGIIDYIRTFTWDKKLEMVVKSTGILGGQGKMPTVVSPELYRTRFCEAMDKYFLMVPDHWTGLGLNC

Molecule | IC50
4-(5-(3-(2-fluorophenyl)-1H-pyrazol-1-yl)-2-(tetrahydrofuran-2-yl)pyrazolo[1,5-a]pyrimidin-7-yl)morpholine [Compound 91] | 100 to 1000 nM
4-(5-(3-(3-fluorophenyl)-1H-pyrazol-1-yl)-2-(pyridin-4-yl)pyrazolo[1,5-a]pyrimidin-7-yl)morpholine [Compound 64] | 10 to 100 nM
c1cc(-c2cc3nc(-n4ccc(C5CCCNC5)n4)cc(N4CCOCC4)n3n2)ccn1 (single isomer, unassigned) [Compound 75, 4-(5-(3-(piperidin-3-yl)-1H-pyrazol-1-yl)-2-(pyridin-4-yl)pyrazolo[1,5-a]pyrimidin-7-yl)morpholine] | 100 to 1000 nM
c1cc(-c2cc3nc(-n4ccc(C5CCCNC5)n4)cc(N4CCOCC4)n3n2)ccn1 (single isomer, unassigned) [Compound 76, 4-(5-(3-(piperidin-3-yl)-1H-pyrazol-1-yl)-2-(pyridin-4-yl)pyrazolo[1,5-a]pyrimidin-7-yl)morpholine] | 100 to 1000 nM
Cc1cccc(/C=N/Nc2cc(N3CC4CC3CO4)n3nc(-c4ccncc4)cc3n2)c1 (stereo not drawn) [Compound 1, (E)-5-(5-(2-(3-methylbenzylidene)hydrazinyl)-2-(pyridin-4-yl)pyrazolo[1,5-a]pyrimidin-7-yl)-2-oxa-5-azabicyclo[2.2.1]heptane] | 10 to 100 nM
Cc1cccc(CCOc2cc(N3CCOCC3)n3nc(-c4ccncc4)cc3n2)c1 [Compound 2, 4-(5-(3-methylphenethoxy)-2-(pyridin-4-yl)pyrazolo[1,5-a]pyrimidin-7-yl)morpholine] | 1000 to 10000 nM
O=c1ccc(-c2ccccc2)nn1-c1cc(N2CCOCC2)n2nc(-c3ccncc3)cc2n1 [Compound 3, 2-(7-morpholino-2-(pyridin-4-yl)pyrazolo[1,5-a]pyrimidin-5-yl)-6-phenylpyridazin-3(2H)-one] | 100 to 1000 nM
O=c1c(Br)c(Br)cnn1-c1cc(N2CCOCC2)n2nc(-c3ccncc3)cc2n1 [Compound 4, 4,5-dibromo-2-(7-morpholino-2-(pyridin-4-yl)pyrazolo[1,5-a]pyrimidin-5-yl)pyridazin-3(2H)-one] | 1000 to 10000 nM
O=c1c(-c2ccccc2)ccnn1-c1cc(N2CCOCC2)n2nc(-c3ccncc3)cc2n1 [Compound 5, 2-(7-morpholino-2-(pyridin-4-yl)pyrazolo[1,5-a]pyrimidin-5-yl)-4-phenylpyridazin-3(2H)-one] | 100 to 1000 nM
O=c1c(-c2ccccc2)c(-c2ccccc2)cnn1-c1cc(N2CCOCC2)n2nc(-c3ccncc3)cc2n1 [Compound 6, 2-(7-morpholino-2-(pyridin-4-yl)pyrazolo[1,5-a]pyrimidin-5-yl)-4,5-diphenylpyridazin-3(2H)-one] | 1000 to 10000 nM
COc1cnn(-c2cc(N3CCOCC3)n3nc(-c4ccncc4)cc3n2)c(=O)c1Br [Compound 7, 4-bromo-5-methoxy-2-(7-morpholino-2-(pyridin-4-yl)pyrazolo[1,5-a]pyrimidin-5-yl)pyridazin-3(2H)-one] | 1000 to 10000 nM
c1cncc(-n2nccc2-c2cc(N3CCOCC3)n3nc(-c4ccncc4)cc3n2)c1 [Compound 12, 4-(5-(1-(pyridin-3-yl)-1H-pyrazol-5-yl)-2-(pyridin-4-yl)pyrazolo[1,5-a]pyrimidin-7-yl)morpholine] | 1000 to 10000 nM
c1cncc(-n2ccc(-c3cc(N4CCOCC4)n4nc(-c5ccncc5)cc4n3)n2)c1 [Compound 13, 4-(5-(1-(pyridin-3-yl)-1H-pyrazol-3-yl)-2-(pyridin-4-yl)pyrazolo[1,5-a]pyrimidin-7-yl)morpholine] | 10 to 100 nM
c1ccc(-n2ccc(-c3cc(N4CCOCC4)n4nc(-c5ccncc5)cc4n3)n2)cc1 [Compound 14, 4-(5-(1-phenyl-1H-pyrazol-3-yl)-2-(pyridin-4-yl)pyrazolo[1,5-a]pyrimidin-7-yl)morpholine] | 10 to 100 nM
CC(C)(C)OC(=O)N1CCCC(c2cn(-c3cc(N4CCOCC4)n4nc(-c5ccncc5)cc4n3)cn2)C1 (stereo not drawn) [Compound 15, tert-butyl 3-(1-(7-morpholino-2-(pyridin-4-yl)pyrazolo[1,5-a]pyrimidin-5-yl)-1H-imidazol-4-yl)piperidine-1-carboxylate] | 1000 to 10000 nM
c1cc(-c2cc3nc(-n4cnc(C5CCCNC5)c4)cc(N4CCOCC4)n3n2)ccn1 (stereo not drawn) [Compound 16, 4-(5-(4-(piperidin-3-yl)-1H-imidazol-1-yl)-2-(pyridin-4-yl)pyrazolo[1,5-a]pyrimidin-7-yl)morpholine] | 1000 to 10000 nM
C1=C(c2cn(-c3cc(N4CCOCC4)n4nc(-c5ccncc5)cc4n3)cn2)CNCC1 [Compound 17, 4-(2-(pyridin-4-yl)-5-(4-(1,2,5,6-tetrahydropyridin-3-yl)-1H-imidazol-1-yl)pyrazolo[1,5-a]pyrimidin-7-yl)morpholine] | 1000 to 10000 nM

Molecule | IC50
CN1CCCC(c2cn(-c3cc(N4CCOCC4)n4nc(-c5ccncc5)cc4n3)cn2)C1 (stereo not drawn) [Compound 18, 4-(5-(4-(1-methylpiperidin-3-yl)-1H-imidazol-1-yl)-2-(pyridin-4-yl)pyrazolo[1,5-a]pyrimidin-7-yl)morpholine] | 1000 to 10000 nM
CN1CC(c2cc(N3CCOCC3)n3nc(-c4ccncc4)cc3n2)CC1c1ccccc1 (stereo not drawn) [Compound 19, 4-(5-(1-methyl-5-phenylpyrrolidin-3-yl)-2-(pyridin-4-yl)pyrazolo[1,5-a]pyrimidin-7-yl)morpholine] | 1000 to 10000 nM
O=C1C(c2ccccc2)CCN1c1cc(N2CCOCC2)n2nc(-c3ccncc3)cc2n1 (stereo not drawn) [Compound 23, 1-(7-morpholino-2-(pyridin-4-yl)pyrazolo[1,5-a]pyrimidin-5-yl)-3-phenylpyrrolidin-2-one] | 100 to 1000 nM
O=C1C(c2ccccc2)CCCN1c1cc(N2CCOCC2)n2nc(-c3ccncc3)cc2n1 (stereo not drawn) [Compound 24, 1-(7-morpholino-2-(pyridin-4-yl)pyrazolo[1,5-a]pyrimidin-5-yl)-3-phenylpiperidin-2-one] | 1000 to 10000 nM
O=C1CC(c2ccccc2)CN1c1cc(N2CCOCC2)n2nc(-c3ccncc3)cc2n1 (stereo not drawn) [Compound 25, 1-(7-morpholino-2-(pyridin-4-yl)pyrazolo[1,5-a]pyrimidin-5-yl)-4-phenylpyrrolidin-2-one] | 1000 to 10000 nM
O=C1CCC(c2ccccc2)CN1c1cc(N2CCOCC2)n2nc(-c3ccncc3)cc2n1 (stereo not drawn) [Compound 26, 1-(7-morpholino-2-(pyridin-4-yl)pyrazolo[1,5-a]pyrimidin-5-yl)-5-phenylpiperidin-2-one] | 1000 to 10000 nM
CN1CCN(c2cc(N3CCOCC3)n3nc(-c4ccncc4)cc3n2)C(=O)C1c1ccccc1 (stereo not drawn) [Compound 27, 4-methyl-1-(7-morpholino-2-(pyridin-4-yl)pyrazolo[1,5-a]pyrimidin-5-yI)-3-phenylpiperazin-2-one] | 1000 to 10000 nM
CN1CCN(c2cc(N3CCOCC3)n3nc(-c4ccncc4)cc3n2)C(Cc2ccccc2)C1=O (stereo not drawn) [Compound 28, 3-benzyl-1-methyl-4-(7-morpholino-2-(pyridin-4-yl)pyrazolo[1,5-a]pyrimidin-5-yl)piperazin-2-one] | 1000 to 10000 nM
Fc1cc(N2CCOCC2)n2nc(-c3ccncc3)cc2n1 [Compound 29, 4-(5-fluoro-2-(pyridin-4-yl)pyrazolo[1,5-a]pyrimidin-7-yl)morpholine] | 100 to 1000 nM
c1ccc(C2CN(c3cc(N4CCOCC4)n4nc(-c5ccncc5)cc4n3)C2)cc1 [Compound 32, 4-(5-(3-phenylazetidin-1-yl)-2-(pyridin-4-yl)pyrazolo[1,5-a]pyrimidin-7-yl)morpholine] | 1000 to 10000 nM
c1ccc(C2CCN(c3cc(N4CCOCC4)n4nc(-c5ccncc5)cc4n3)C2)cc1 (stereo not drawn) [Compound 33, 4-(5-(3-phenylpyrrolidin-1-yl)-2-(pyridin-4-yl)pyrazolo[1,5-a]pyrimidin-7-yl)morpholine] | 1000 to 10000 nM
c1ccc(C2CCCN(c3cc(N4CCOCC4)n4nc(-c5ccncc5)cc4n3)C2)cc1 (stereo not drawn) [Compound 34, 4-(5-(3-phenylpiperidin-1-yl)-2-(pyridin-4-yl)pyrazolo[1,5-a]pyrimidin-7-yl)morpholine] | 1000 to 10000 nM
c1ccc(C2CN(c3cc(N4CCOCC4)n4nc(-c5ccncc5)cc4n3)CCN2)cc1 (stereo not drawn) [Compound 35, 4-(5-(3-phenylpiperazin-1-yl)-2-(pyridin-4-yl)pyrazolo[1,5-a]pyrimidin-7-yl)morpholine] | 1000 to 10000 nM
c1ccc(CC2COCCN2c2cc(N3CCOCC3)n3nc(-c4ccncc4)cc3n2)cc1 (stereo not drawn) [Compound 36, 3-benzyl-4-(7-morpholino-2-(pyridin-4-yl)pyrazolo[1,5-a]pyrimidin-5-yl)morpholine] | 1000 to 10000 nM
CN1C(=O)CN(c2cc(N3CCOCC3)n3nc(-c4ccncc4)cc3n2)CC1c1ccccc1 (stereo not drawn) [Compound 37, 1-methyl-4-(7-morpholino-2-(pyridin-4-yl)pyrazolo[1,5-a]pyrimidin-5-yl)-6-phenylpiperazin-2-one] | 1000 to 10000 nM
CN1CCN(c2cc(N3CCOCC3)n3nc(-c4ccncc4)cc3n2)CC1c1ccccc1 (stereo not drawn) [Compound 38, 4-(5-(4-methyl-3-phenylpiperazin-1-yl)-2-(pyridin-4-yl)pyrazolo[1,5-a]pyrimidin-7-yl)morpholine] | 1000 to 10000 nM
